The results in this text go back to publication PMC8587999, “Assessment of the Activity of Decoquinate and Its Quinoline-O-Carbamate Derivatives against Toxoplasma gondii In Vitro and in Pregnant Mice Infected with T. gondii Oocysts” (Molecules, 2021).

Usually IC50 stands for the midpoint of a concentration-inhibition curve.

Where two headings read alike, the source gives them in different places.

The subject of data set [1] is T. gondii β-gal tachyzoites. In words: IC50 determination with T. gondii β-gal tachyzoites grown in HFF monolayers. Type of data set: cell-based, Toxoplasma gondii. To be noted: for Selectivity Index: HFF vs T. gondii, compound applied prior to / concomitantly with infection; for IC50: Toxoplasma gondii, Tg-β-gal in HFF, [upper, lower limit of 95% CI], read-out: IC50 T. gondii (nM) [LS. The method, then: The efficacy of DCQ in vitro was determined using T. gondii β-gal constitutively expressing β-galactosidase grown in HFF monolayers. […] The low IC50 values and the low degree of cytotoxicity against HFF host cells in vitro encouraged us to examine the efficacy of oral treatment of CD1 mice infected with T. gondii oocysts with DCQ at 10 mg/kg/day for 5 days.
Due to the negative effects of treatment with DCQ, we investigated the efficacy in vitro of the three DCQ derivatives RMB054, RMB055 and RMB060 (Figure 1) in comparison to DCQ. Different concentrations of DCQ and the derivatives in DMSO were added to HFF either concomitantly with infection of T. gondii-β-gal tachyzoites, or 3 h after infection. […] The corresponding dose-response curves are shown in Supplementary Materials Figure S1. The viability of uninfected HFF was not impaired by the compounds up to concentrations of 5 µM (DCQ and RMB054) or 10 µM (RMB055, RMB060) (Table 1).
(§1) HFF cytotoxicity assessments and IC50 determinations using cultures of Tg-β-gal tachyzoites grown in HFF were carried out as described previously. IC50 values were calculated with the logit-log-transformation of the relative growth and subsequent regression analysis was done with the corresponding software tool contained in Microsoft Excel software package (Microsoft, Seattle, WA). For the long-term treatments, HFF grown in T25 culture flasks were infected with 5 × 10^5 TgMe49 tachyzoites, and after 4.5 h 0.5 μM DCQ, RMB054 or RMB060 were added. Infected cultures treated with the highest corresponding concentration of DMSO (0.5%) served as controls. Prolonged treatments for up to 24 days were carried out, with the addition of fresh medium containing the respective drug every 3–4 days. Cultures were inspected by light microscopy on a daily basis. On days 3, 6, 9, 13, 16, 20 and 24, the compound-containing medium was removed, and parasites were maintained without drug pressure until host cell lysis (plaque formation) was evident.

Data set [2] relates to human foreskin fibroblasts (HFF). The data set is described as follows: HFF cytotoxicity assessment. To be noted: for IC50: Homo sapiens, Fibroblast, uninfected HFF, no decline in viability over the concentration range. In kind it is cell-based. The method, then: as §1
Data set [3] deals with BAG1 (bradyzoite antigen 1) expression in T. gondii Me49. The data set is described as follows: Immunofluorescence staining for BAG1 expression in TgMe49-infected HFF. In kind it is cell-based, Toxoplasma gondii. As to conditions: treatment for 48 h. The method, then:
For immunofluorescence microscopy, 4 × 10^4 HFF were grown on glass coverslips for 24 h to form a sub-confluent monolayer and were exposed to 1.2 × 10^5 TgMe49 tachyzoites during 4 h at 37 °C and 5% CO2. The medium was replaced and supplemented with 20 nM DCQ and RMB060, or medium containing DMSO as control. Cultures infected with TgPgSp1 (low passage number) served as positive control for BAG1 (bradyzoite antigen 1) expression. Infected cells were cultured for 16 h, 24 h, and 48 h and fixed and labelled for immunofluorescence staining as described previously. A polyclonal rabbit anti-BAG1 antiserum was applied at 1:200 dilution, followed by a goat-anti-rabbit fluorescein-isothiocyanate conjugate (1:300), the monoclonal mouse anti-TgSAG1 antibody was diluted (1:100), followed by goat anti-mouse conjugated to tetramethylrhodamine-isothiocyanate at 1:300. Subsequently, samples were mounted in H-1200 Vectashield mounting medium (Vector Laboratories, Burlingame, CA, USA) containing 4,6-diamidino-2-phenylindole and were viewed on a Nikon E80i fluorescence microscope (Tokyo, Japan). Processing of images was performed using Openlab 5.5.2 (Improvision, PerkinElmer, Waltham, MA, USA) and the ImageJ software, version 1.53 m.

[4] abbreviates: compound added 3 h post-infection, LI] Compound Added 3 h Post-infection.
Setting [5] is: compound added prior to / concomitantly with infection, LI] Compound Added Prior to Infection.

For `CCCCCCCCCCOc1cc2c(OC(=O)N3CCN(CC)C(=O)C3=O)c(C(=O)OCCOC)cnc2cc1OCC` [RMB054], the “Selectivity Index” value in data set [1] is on record as above 435. Besides, the IC50 in data set [1] (setting [4]) is 11.4 nM; in data set [1] (setting [5]), 11.5 nM; in data set [2] it was above 5 µM. The “Concentration up to which viability of uninfected HFF was not impaired” value in data set [2] is given as 5 µM. Besides, the “Expression of the bradyzoite marker BAG1” value in data set [3] is “not clearly detectable”.

For the compound `CCCCCCCCCCOc1cc2c(OC(=O)N3CCN(S(C)(=O)=O)C3=O)c(C(=O)OCCOC)cnc2cc1OCC` [RMB055], the “Selectivity Index” value in data set [1] is above 50. Also, the IC50 in data set [1] (setting [4]) is 227 nM; in data set [1] (setting [5]), 200 nM; in data set [2], above 10 µM. The “Concentration up to which viability of uninfected HFF was not impaired” value in data set [2] is on record as 10 µM.
